Bridge positions count the residues as written; N and C are the ends. Ends that are not written are not given here. Peptide text beside a SMILES is read from it.

Results on 6 molecules are retold here after publication PMC7263589, “Integration of phage and yeast display platforms: A reliable and cost effective approach for binning of peptides as displayed on-phage” (PLoS ONE, 2020).

The target of assay [1] is T1, IL-23:IL-23R (Homo sapiens, UniProt P29460+Q9NPF7).
T1 construct: made in house
T1 sequence (Q9NPF7 20-189): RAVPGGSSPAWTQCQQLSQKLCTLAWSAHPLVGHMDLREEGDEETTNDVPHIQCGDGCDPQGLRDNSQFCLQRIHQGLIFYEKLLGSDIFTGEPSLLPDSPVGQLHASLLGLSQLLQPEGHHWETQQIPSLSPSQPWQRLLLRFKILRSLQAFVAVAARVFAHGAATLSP
T1 sequence (P29460 23-328 partner): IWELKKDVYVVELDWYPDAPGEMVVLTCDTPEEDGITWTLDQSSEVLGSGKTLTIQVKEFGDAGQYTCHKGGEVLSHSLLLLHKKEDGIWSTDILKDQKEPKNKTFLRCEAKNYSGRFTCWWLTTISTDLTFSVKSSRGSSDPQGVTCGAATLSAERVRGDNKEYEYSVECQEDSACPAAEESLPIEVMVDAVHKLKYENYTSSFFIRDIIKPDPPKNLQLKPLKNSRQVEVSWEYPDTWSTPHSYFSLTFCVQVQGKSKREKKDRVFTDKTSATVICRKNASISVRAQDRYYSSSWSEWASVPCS
The experiment in a line: IL-23:IL-23R protein-protein interaction assay, AlphaLISA. The assay is classed as biochemical. To be noted: disruption of the complex formed by IL-23 and IL-23R. As to the method: For AlphaLISA assay, peptides at concentration of 10 mM were dissolved in DMSO and serial 3-fold dilutions were carried out using acoustic technology, dispensing peptides directly into the assay plate (ProxiPlate-384 Plus). The rest of the reagents were dissolved in assay buffer containing 25 mM HEPES pH 7.4, 150 mM NaCl, 0.02% Tween 20 and 0.1% BSA. IL-23-AVI was pre-incubated with peptide at the indicated concentrations for 30 min at room temperature. Then, FLAG-tagged IL-23R was added to the assay mix and incubated at room temperature for 1 hour. This was followed by addition of Streptavidin-coated donor beads and acceptor beads conjugated to anti-FLAG antibody. Final assay concentration of IL-23-AVI and FLAG-IL-23R were 1.5 nM and 3 nM, respectively. The assay plate was incubated for one additional hour at RT and read in an Envision plate reader. For TR-FRET assay, tested compounds were serially diluted in DMSO using an Echo acoustic and dispensed directly into the final assay plate. Final concentration of DMSO in the assay was 1%. Assays were performed by preincubation of the diluted compounds with IL-23R-FLAG for one hour at room temperature in assay buffer containing 25 mM HEPES, 150 mM NaCl, 0.02% Tween 20, 0.1% BSA; pH 7.4. Next, IL-23-AVI was added to the assay mix and incubated for 1 hour at room temperature. Finally, the detection reagents, Europium-labeled streptavidin and Anti-FLAG IgG conjugated to SureLight–Allophycocyanin were added and incubated overnight at room temperature. Then, assay microplates were read and values were collected as the ratio between fluorescence emission at 665 nm and 615 nm (665/615). The final values were expressed as a percentage of the DMSO treated controls. IC50 values were calculated by fitting the normalized data to a four parameter logistic equation.
In general terms: Bead proximity is the source of the signal in Alpha formats.

Assay [2] addresses T2, IL-23 (Homo sapiens, UniProt P29460+Q9NPF7).
T2 construct: made in house
T2 sequence (Q9NPF7 20-189): T1 sequence (Q9NPF7 20-189)
T2 sequence (P29460 23-328): T1 sequence (P29460 23-328 partner)
The experiment in a line: SPR direct binding to captured IL-23-AVI (Biacore T200). To be noted: IL-23-AVI captured on streptavidin chip, 25°C, 50 μl/min, 10 mM HEPES pH 7.5, 150 mM NaCl, 0.005% P20, 3% DMSO, 1:1 binding model, multi-cycle (single cycle kinetics for 23–652 and IL-23R), n = 1, 23–447 an estimate, read-out: ka. As to the method: SPR (Biacore T200, GE Healthcare) was used to determine binding constants of the peptides against IL-23 and their competitiveness to IL-23R. All SPR experiments were performed at 25°C with flow rate of 50 μl/min. Assay buffer used in direct binding experiment was 10 mM HEPES pH 7.5, 150 mM NaCl, 0.005% P20, and 3% DMSO. Assay buffer used in competition experiment was 10 mM HEPES pH 7.5, 150 mM NaCl, 0.005% P20, and 1% BSA. All peptides were reconstituted first in DMSO as 10 mM stocks and then diluted into assay buffer. The proteins used in direct binding and competition SPR are described in S1 Table in S1 File. For direct binding of peptides against IL-23, 2000–9000 RU of IL-23-AVI was captured to streptavidin sensor chips (GE Healthcare, Series S Sensor Chip SA, BR-1005-31). Dilution series with 3-fold increment were prepared for each peptide. Initially, all peptides were tested up to 30 μM. Concentration range for some were then lowered accordingly based on affinity or nuisance behavior at high concentrations. SPR “multi-cycle” type was used for peptides 23–644, 23–437, 23–441, 23–446, and 23–447. Each cycle consisted of 30s of analyte injection and then 60s of buffer flow to monitor dissociation. “Single cycle kinetics” (SCK) type was used for 23–652 due to their long dissociation half-lives. Each SCK cycle consisted of five 60s injections of sample in increasing concentration with a final 600s of dissociation. To study IL-23 and IL-23R interaction, 200–1000 RU of IL-23-AVI and IL-23R-Fc-AVI were captured to streptavidin sensor chip. Dilution series with 3-fold increment of IL-23R-FLAG-HIS and IL-23-HIS were run in SCK cycle type as described above except the final dissociation time were 60-300s. Sensorgrams from the entire titration series for each sample were fitted globally to extract binding kinetics and affinity using Biacore T200 Evaluation Software 2.0 (GE Healthcare) according to a 1:1 binding model. To identify IL-23 binders that can block receptor binding, a competition SPR was established. In each SPR cycle, fresh IL-23R was capture (<1000 RU) by injecting 10 μg/ml of IL-23R-Fc-AVI to a Protein-A flow cell at 10 μl/min flow rate for 30s. Analyte consisted of a mixture of 20 nM of IL-23 protein and a single concentration of peptide was then injected for 30s at 50 μl/min to observe IL-23 binding. Finally, the Protein-A surface was regenerated by 10 mM Glycine pH 1.5 for 30s at 30 μl/min. IL-23 at 20 nM without peptide, “IL-23 only”, was used as control to quantify IL-23 binding without blockage; while “cold” IL-23R was used as a positive control for blockage.

In assay [3] the target is T3, IL-23-HIS (human, UniProt Q9NPF7 20-189; P29460 23-328).
T3 construct: IL-23 p19 subunit, human; IL-12/IL-23 p40 subunit, human; also called IL-23 only; IL-23 protein
T3 sequence (looked up) 1: T1 sequence (Q9NPF7 20-189)
T3 sequence (looked up) 2: T1 sequence (P29460 23-328 partner)
The experiment in a line: SPR; competition SPR, 25°C; IL-23R-Fc-AVI (<1000 RU) captured on Protein-A; 20 nM IL-23 mixed with one concentration of peptide or cold IL-23R injected 30 s; 10 mM HEPES pH 7.5, 150 mM NaCl, 0.005% P20, 1% BSA; n = 1. To be noted: both partners purified.

Assay [4] concerns the target T4, IL-23 p40 subunit (as in the crystallized IL-23) (human, UniProt P29460 23-328, Two N-Acetylglucosamine sugars modeled at Asn200).
T4 construct: Interleukin-12 subunit beta (p40), human; Chain of Wm1, written on its own for the contacts seen in the structure
T4 sequence (looked up): T1 sequence (P29460 23-328 partner)
Briefly: crystal structure; IL-23:peptide mixture, 1:1 molar ratio, ~16 mg/mL; sitting-drop vapor diffusion at 8°C; 100 mM Hepes pH 7, 17% w/v PEG 3350, 150 mM potassium nitrate; 2.7 Å, space group P212121. To be noted: both partners purified.

Assay [5] concerns the target T5, IL-23 (heterodimer of the p19 and p40 subunits), protein for crystallization (human, UniProt Q9NPF7 20-189; P29460 23-328, Two N-Acetylglucosamine sugars modeled at Asn200).
T5 construct: Interleukin-23 subunit alpha (p19), human; Interleukin-12 subunit beta (p40), human; attempts were made to limit glycosylation; Multiple flexible loops are missing from the model; also called hu IL-23
T5 sequence (looked up) 1: T1 sequence (Q9NPF7 20-189)
T5 sequence (looked up) 2: T1 sequence (P29460 23-328 partner)
The description is as above. To be noted: both partners purified.

Take `CC[C@H](C)[C@H](NC(=O)[C@H](CCCCN)NC(=O)[C@@H](N)CCC(N)=O)C(=O)N[C@H](C(=O)N[C@@H](CCC(N)=O)C(=O)N[C@H]1CSSC[C@@H](C(=O)N[C@@H](CC(C)C)C(=O)N[C@@H](CC(C)C)C(=O)N[C@@H](CC(N)=O)C(=O)N[C@@H](CC(=O)O)C(=O)N[C@H](C(=O)O)C(C)C)NC(=O)[C@@H]2CCCN2C(=O)[C@H](Cc2ccc(O)cc2)NC(=O)[C@H]([C@@H](C)O)NC(=O)[C@H](Cc2c[nH]c3ccccc23)NC(=O)[C@H]([C@@H](C)CC)NC(=O)[C@H]([C@@H](C)CC)NC(=O)[C@H](Cc2ccc(O)cc2)NC(=O)[C@H](C(C)C)NC1=O)[C@@H](C)O` [23–441] (H-QKITQCVYIIWTYPCLLNDV-OH; disulfide 6-15): the “AlphaLISA potency” value in assay [1] is on record as “single digit micromolar”. For the same molecule, the kon in assay [2] was 190000 M⁻¹ s⁻¹.
In the same order, the values of `CC[C@H](C)[C@H](NC(=O)[C@H](CCC(=O)O)NC(=O)[C@H](CCCCN)NC(=O)[C@@H](NC(=O)[C@@H](N)Cc1ccccc1)[C@@H](C)O)C(=O)N[C@@H](CC(=O)O)C(=O)N[C@@H](CO)C(=O)N[C@@H](Cc1c[nH]c2ccccc12)C(=O)N[C@@H](Cc1c[nH]c2ccccc12)C(=O)N[C@@H](CC(C)C)C(=O)N[C@@H](CO)C(=O)N[C@@H](CC(C)C)C(=O)N[C@@H](CCSC)C(=O)N[C@@H](CO)C(=O)N[C@@H](CO)C(=O)O` [23–437] (H-FTKEIDSWWLSLMSS-OH) are “single digit micromolar” and 178000 M⁻¹ s⁻¹.
The like results for `CC(C)C[C@@H]1NC(=O)[C@H](Cc2ccc(O)cc2)NC(=O)[C@H](Cc2ccc(O)cc2)NC(=O)[C@H](CC(C)C)NC(=O)[C@@H](NC(=O)[C@H](CCC(=O)O)NC(=O)[C@@H](N)CC(C)C)CSSC[C@@H](C(=O)N[C@@H](CC(=O)O)C(=O)N[C@@H](CC(N)=O)C(=O)O)NC(=O)[C@H](C(C)C)NC(=O)[C@H](CCCCN)NC(=O)[C@H](Cc2c[nH]c3ccccc23)NC(=O)[C@H](CCCNC(=N)N)NC1=O` [23–447] (H-LECLYYLRWKVCDN-OH; disulfide 3-12) were, in that order, “single digit micromolar” and 48300 M⁻¹ s⁻¹.

B1: IL-23R-Fc-AVI (Fc fusion, UniProt Q5VWK5 24-355, looked up)
chain: GITNINCSGHIWVEPATIFKMGMNISIYCQAAIKNCQPRKLHFYKNGIKERFQITRINKTTARLWYKNFLEPHASMYCTAECPKHFQETLICGKDISSGYPPDIPDEVTCVIYEYSGNMTCTWNAGKLTYIDTKYVVHVKSLETEEEQQYLTSSYINISTDSLQGGKKYLVWVQAANALGMEESKQLQIHLDDIVIPSAAVISRAETINATVPKTIIYWDSQTTIEKVSCEMRYKATTNQTWNVKEFDTNFTYVQQSEFYLEPNIKYVFQVRCQETGKRYWQPWSSLFFHKTPETVPQVTSKAFQHDTWNSGLTVASISTGHLTSDNRGDIG
notes: IL-23 receptor (IL-23R); also called IL-23R sensor
As for B1, in assay [3], the binding result is reported as “binds”.

B2: IL-23 p19 subunit (as in the crystallized IL-23) (natural protein, human, UniProt Q9NPF7 20-189, looked up)
chain: T1 sequence (Q9NPF7 20-189)
notes: Interleukin-23 subunit alpha (p19), human; Chain of Wm1, written on its own for the contacts seen in the structure
As for B2, the binding result in assay [4] was “binds”.

B3: peptide 23-652 (peptide)
peptide: DTLTKSFCYFGTWCQMYGST
modifications: disulfide 8-14
notes: selected from a cyclic peptide phage library against IL-23; residues 4-18 are ordered in the structure; also called FGT/FGL-motif containing peptide; source: synthetic peptide (CPC Scientific)
Consider B3, for which, in assay [5], the binding result was “binds”.
